Experimental data as given in paper PMC3401165, “Regulation of the Cyanobacterial CO2-Concentrating Mechanism Involves Internal Sensing of NADP^+ and α-Ketogutarate Levels by Transcription Factor CcmR” (PLoS ONE, 2012).

Key:
CmpR = target: T1, CmpR (Synechocystis sp. PCC 6803, UniProt Q55459); assay: SPR difference curves, CmpR binding to immobilised operator DNA; conditions: 1.5 µM CmpR; ligand 10, 100, 500 µM; cmpA promoter DNA; effector (co-activator)
T1 construct: heterologously expressed in E. coli by essentially the same approach as His-tagged CcmR
T1 sequence (Q55459 1-304): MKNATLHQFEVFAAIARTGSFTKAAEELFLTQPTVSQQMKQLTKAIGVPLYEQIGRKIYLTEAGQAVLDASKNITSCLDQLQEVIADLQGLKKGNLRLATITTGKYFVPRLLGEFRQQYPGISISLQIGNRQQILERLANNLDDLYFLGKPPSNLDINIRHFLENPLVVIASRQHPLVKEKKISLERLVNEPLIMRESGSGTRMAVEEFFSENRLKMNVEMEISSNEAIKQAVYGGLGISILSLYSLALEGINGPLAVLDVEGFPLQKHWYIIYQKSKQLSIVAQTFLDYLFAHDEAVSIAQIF

CcmR = target: T2, CcmR (Synechocystis sp. PCC 6803, UniProt P73862); assay: SPR difference curves, CcmR binding to immobilised operator DNA; conditions: 1.5 µM CcmR; ligand 10, 100, 500 µM; pndhF3 DNA; 10 mM Pipes pH 7.4, 300 mM NaCl; effector (co-repressor)
T2 construct: gene rbcR; recombinant N-terminally His-tagged, heterologously expressed
T2 sequence (P73862 1-316): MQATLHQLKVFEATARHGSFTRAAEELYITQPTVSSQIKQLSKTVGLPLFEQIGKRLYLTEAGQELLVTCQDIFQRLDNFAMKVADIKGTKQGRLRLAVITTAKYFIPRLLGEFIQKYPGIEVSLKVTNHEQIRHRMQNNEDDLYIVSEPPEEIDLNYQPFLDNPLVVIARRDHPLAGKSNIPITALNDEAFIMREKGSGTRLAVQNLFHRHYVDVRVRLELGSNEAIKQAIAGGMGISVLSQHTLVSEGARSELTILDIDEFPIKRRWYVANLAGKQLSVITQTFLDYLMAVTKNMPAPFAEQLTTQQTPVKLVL

[1] = system: T3, CcmR (Synechocystis sp. PCC 6803), ORF:206cd751; assay: SPR; conditions: SPR: 10 mM Pipes pH 7.4, 300 mM NaCl, 0.02% Tween-20, 25 uL/min, temperature not stated; EMSA: room temperature 20 min, 6% native PAGE (50 mM Tris pH 8.5 …)
T3 sequence: T2 sequence (P73862 1-316)

Row | Compound | SPR difference curves, CmpR binding to immobilised operator DNA (CmpR) | SPR difference curves, CcmR binding to immobilised operator DNA (CcmR) | binding [1]
1 | O=C(COP(=O)(O)O)[C@H](O)[C@H](O)COP(=O)(O)O [ribulose-1,5-bisphosphate] | the presence of 2-PG and RuBP increased binding | – | –
2 | O=C(O)CCC(=O)C(=O)O [α-KG] | – | CcmR only showed modified binding only in the presence of NADP^+ and α-KG | –
3 | O=C(O)COP(=O)(O)O [2-phosphoglycolate] | the presence of 2-PG and RuBP increased binding | – | –
4 | GCTCCCCGGACTAAGCTTGTCAAAATCATTGGCTTTATTCTATCATTGGTTATCTAACAACAATCCCAGGTCTATGAAAGTGAGTGTAATAGCCATAGGTCTATTTTAGTTATTGACTTCAGCACATCCTAGACCCAAG (double strand) [pccmR (SPR)] | – | – | binds
5 | NC(=O)c1ccc[n+]([C@@H]2O[C@H](COP(=O)(O)OP(=O)(O)OC[C@H]3O[C@@H](n4cnc5c(N)ncnc54)[C@H](OP(=O)(O)O)[C@@H]3O)[C@@H](O)[C@H]2O)c1 [NADP^+] | – | CcmR only showed modified binding only in the presence of NADP^+ and α-KG | –
6 | AGTCAAGCGACAATGGTATAACCTAGATGCATAGAAAGAGTGTTATTTGTTACACCATATCATAGGGGAAATAAAATTCCAGATCAACAACCATTTGCTTAAGTGAATGATAAGTCTGGGTAATTGGAGGAAGAGGCAGGCTA (double strand) [pndhF3-2] | – | – | binds
